According to patent EP4563571A1, “PRMT5 INHIBITORS” (Beijing Earthwise Technology Co., Ltd., priority 2022, dated 2024):

Tested on: HCT116^MTAP Deletion cells
Assay: Anti-proliferation assay on cells (Cell-Titer Glo, 10 days)
Assay type: cell-based
Conditions: 240 h, HCT116^MTAP Deletion cells, 10 days incubation, CTG readout; read-out: HCT116^MTAP Deletion GI50
Experimental: HCT116^MTAP Deletion cells were from Pharmaron (China); HCT116 cells were from ATCC; McCoy's 5A medium was purchased from Invitrogen (USA); penicillin-streptomycin and fetal bovine serum were purchased from Gibco (USA); a 384-well plate was purchased from PerkinElmer (USA); and Cell-Titer Glo reagent was purchased from Promega (USA).
Compound dissolution: All the compounds were dissolved in dimethyl sulfoxide (DMSO) and then stored. The compounds were stored at room temperature in a dry condition for 3 months for short term storage or at -20 °C for long term storage.
Cell culture and passaging
The cells were cultured strictly in accordance with ATCC requirements. The cell culture medium (McCoy's 5A medium + 10% fetal bovine serum + 1% penicillin + streptomycin) was transferred to a 15 mL centrifuge tube and centrifuged at 1000 rpm for 5 min. The supernatant was removed. The cells were resuspended with complete culture medium, inoculated into a culture dish at the required density, and cultured in an incubator at 37 °C, 95% humid air, and 5% carbon dioxide. The culture medium was replenished or the cells were passaged every 2-3 days depending on the cell growth condition.
Cell proliferation activity assay
When the confluency of cells in the culture dish reached about 90%, the cells were washed twice with PBS, and then treated with trypsin to become single cells. The cells were counted, and 40µl of the cells was inoculated into each well of a 384-well plate (50 cells/well). The plate was equilibrated at 37 °C and 5% carbon dioxide for 10 to 15 minutes. The compounds were injected into the 384-well plate using Echo550, and positive control and negative control (0.1% DMSO) were set up. Each compound was subjected to a 3-fold dilution, resulting in 10 concentration gradients, in duplicate, and the content of DMSO was 0.1%. The 384-well plate was incubated in a cell culture incubator for 10 days.
Then, 40 µl of cell proliferation assay reagent (CTG) was added to the 384-well plate, and the plate was shaken to mix well. Then, the 384-well plate was incubated at 37 °C and 5% carbon dioxide in the dark for 30 minutes. The data were read using the Envision multifunctional microplate reader. […] According to the different drug concentrations and their corresponding inhibition rates, the GI50 curve was drawn using GraphPad 8.0 software. The data were analyzed, and the final IC50 value was obtained.

Row | Structure (SMILES) | GI50 [nM]
1 | CN(C(=O)C(=O)Nc1cnc(N)c2c1cnn2C)C1COc2cc(C(F)(F)C(F)(F)F)ccc21 (stereo not drawn) [Example 210] | < 10
2 | CN(C(=O)C(=O)Nc1cnc(N)c2c1cnn2C)C1COCc2cc(C34CCOCC3C4)ccc21 (stereo not drawn) [Example 197] | < 10
3 | CN(C(=O)C(=O)Nc1cnc(N)c2c1cnn2C)C1CCOCC1 [Example 120] | 1000 to 10000
4 | CN(C(=O)C(=O)Nc1cnc(N)c2c1cnn2C)C1COCc2cc(OC3CC3)ccc21 (stereo not drawn) [Example 171] | 10 to 100
5 | CN1CCC(c2ccc3c(c2)COCC3N(C)C(=O)C(=O)Nc2cnc(N)c3c2cnn3C)CC1 (stereo not drawn) [Example 139] | 10 to 100
6 | Cc1cn(-c2ccc3c(c2)COCC3N(C)C(=O)C(=O)Nc2cnc(N)c3c2cnn3C)cn1 (stereo not drawn) [Example 145] | 10 to 100
7 | CN(C(=O)C(=O)Nc1cnc(N)c2c1cnn2C)C1COCc2cc(-c3cnc(C(F)(F)F)s3)ccc21 (stereo not drawn) [Example 191] | < 10
8 | Cc1ncc(-c2ccc3c(c2)OCC3N(C)C(=O)C(=O)Nc2cnc(N)c3c2cnn3C)s1 (stereo not drawn) [Example 170] | < 10
9 | CN(C(=O)C(=O)Nc1cnc(N)c2c1cnn2C)C1COCc2cc(C(C)(C)C)ccc21 (stereo not drawn) [Example 217] | < 10
10 | CN(C(=O)C(=O)Nc1cnc(N)c2c1cnn2C)C1CCCN(c2ccccc2)C1 (stereo not drawn) [Example 133] | 1000 to 10000
11 | Nc1ncc(NC(=O)C(=O)N(Cc2ccc(C(F)(F)F)cn2)Cc2ccnc3[nH]ccc23)c2c1COC2 [Example 64] | 10 to 100
12 | Cc1ncc(-c2cc3c(cn2)C(N(C)C(=O)C(=O)Nc2cnc(N)c4c2cnn4C)COC3)s1 (stereo not drawn) [Example 222] | 10 to 100
13 | CN(C(=O)C(=O)Nc1cnc(N)c2c1cnn2C)C1COc2cc(C#N)ccc21 (stereo not drawn) [Example 198] | 10 to 100
14 | CN(C(=O)C(=O)Nc1cnc(N)c2c1cnn2C)C1COCc2cc(C3(C(F)(F)F)CC3)ccc21 (stereo not drawn) [Example 237] | < 10
15 | CN(C(=O)C(=O)Nc1cnc(N)c2c1cnn2C)C1COCc2cc(S(C)(=O)=O)ccc21 (stereo not drawn) [Example 227] | 10 to 100
16 | CN(C(=O)C(=O)Nc1cnc(N)c2c1cnn2C)C1COCc2cc(Cl)c(Cl)cc21 (stereo not drawn) [Example 158] | < 10

Row | Structure (SMILES) | GI50 [nM]
17 | CC(C)CN(C(=O)C(=O)Nc1cnc(N)c2c1cnn2C)C1COCc2cc(C(F)(F)F)ccc21 (stereo not drawn) [Example 103] | < 10
18 | CN(C(=O)C(=O)Nc1cnc(N)c2c1cnn2C)C1COc2cc(-c3ccccc3F)ccc21 (stereo not drawn) [Example 214] | < 10
19 | CN(C(=O)C(=O)Nc1cnc(N)c2c1cnn2C)C1COC(C)(C)c2cc(C(F)(F)F)ccc21 (stereo not drawn) [Example 147] | 10 to 100
20 | CCN(C(=O)C(=O)Nc1cnc(N)c2c1cnn2C)C1COc2cc(C(F)(F)F)ccc21 (stereo not drawn) [Example 121] | < 10
21 | CN(C(=O)C(=O)Nc1cnc(N)c2c1COC2)C1CCOCc2cc(C(F)(F)F)ccc21 (stereo not drawn) [Example 49] | 100 to 1000
22 | CN(Cc1ccc2sc(C3CCOCC3)nc2c1)C(=O)C(=O)Nc1cnc(N)c2c1COC2 [Example 67] | 1000 to 10000
23 | CN(C(=O)C(=O)Nc1cnc(N)c2c1cnn2C)C1COc2cc(-c3ccc(C4CC4)nc3)ccc21 (stereo not drawn) [Example 239] | < 10
24 | CN(C(=O)C(=O)Nc1cnc(N)c2c1cnn2C)C1COc2cc(S(C)(=O)=O)ccc21 (stereo not drawn) [Example 189] | 10 to 100
25 | CN(C(=O)C(=O)Nc1cnc(N)c2c1cnn2C)C1COCc2cc(C3(C#N)CC3)ccc21 (stereo not drawn) [Example 218] | < 10
26 | CN(C(=O)C(=O)Nc1cnc(N)c2c1cnn2C)C1COCc2ccc(C(F)(F)F)cc21 (stereo not drawn) [Example 134] | 10 to 100
27 | CN(C(=O)C(=O)Nc1cnc(N)c2c1cnn2C)C1COCc2cc(C(F)(F)C(F)(F)F)ccc21 (stereo not drawn) [Example 238] | < 10
28 | CN(C(=O)C(=O)Nc1cnc(N)c2c1cnn2C)C1COc2cc(OC(F)(F)F)ccc21 (stereo not drawn) [Example 196] | 10 to 100
29 | CN(C(=O)C(=O)Nc1cnc(N)c2c1cnn2C)C1COc2ccccc2C1 (stereo not drawn) [Example 234] | 100 to 1000
30 | CN(C(=O)C(=O)Nc1cnc(N)c2c1cnn2C)C1COc2cc(OC(F)F)ccc21 (stereo not drawn) [Example 204] | 10 to 100
31 | Cc1cc(-c2ccc3c(c2)COCC3N(C)C(=O)C(=O)Nc2cnc(N)c3c2cnn3C)on1 (stereo not drawn) [Example 179] | 10 to 100

The next lines start with the values.

Row | GI50 [nM] | Structure (SMILES)
32 | 1000 to 10000 | CCC(C)N(C(=O)C(=O)Nc1cnc(N)c(C)c1)C(C)c1ccc(C(F)(F)F)cn1 (stereo not drawn) [Example 74]
33 | 100 to 1000 | Cc1cc(NC(=O)C(=O)N(Cc2ccc(C(F)(F)F)cn2)C2CCCc3cn[nH]c32)cnc1N (stereo not drawn) [Example 60]
34 | 100 to 1000 | CCC(C)N(Cc1ccc(C(F)(F)F)nn1)C(=O)C(=O)Nc1cnc(N)c(C)c1 (stereo not drawn) [Example 65]
35 | < 10 | CCC(C)N(Cc1ccc(C2=CCN(C(=O)OC)CC2)cn1)C(=O)C(=O)Nc1cnc(N)c(C)c1 (stereo not drawn) [Example 125-P1]
36 | 100 to 1000 | Cc1cc(NC(=O)C(=O)N(Cc2ccc(C(F)(F)F)nn2)[C@H](C)c2ncccn2)cnc1N [Example 55]
37 | 10 to 100 | CCC(C)N(Cc1ccc(C2CC2)cn1)C(=O)C(=O)Nc1cnc(N)c(C)c1 (stereo not drawn) [Example 71]
38 | 10 to 100 | CCOc1ccc(CN(C(=O)C(=O)Nc2cnc(N)c(C)c2)C(C)CC)nc1 (stereo not drawn) [Example 62]
39 | 1000 to 10000 | CCC(C)N(Cc1ccn(C)n1)C(=O)C(=O)Nc1cnc(N)c(C)c1 (stereo not drawn) [Example 72]

Same assay, conditions: HCT116^MTAP Deletion cells, 10 days incubation, CTG readout; read-out: HCT116^MTAP Deletion GI50

Row | Structure (SMILES) | GI50 [nM]
40 | Cc1ccc2c(c1)OCC2N(C)C(=O)C(=O)Nc1cnc(N)c2c1cnn2C (stereo not drawn) [Example 233] | 10 to 100
41 | Nc1ncc(NC(=O)C(=O)N(Cc2ccc(C(F)(F)F)cn2)CC2CC2)c2c1COC2 [Example 40] | 100 to 1000
42 | CN(C(=O)C(=O)Nc1cnc(N)c2c1cnn2C)C1COc2cc(-c3cnn(C)c3)ccc21 (stereo not drawn) [Example 140-P2] | 10 to 100
43 | CN(C(=O)C(=O)Nc1cnc(N)c2c1cnn2C)C1COCc2cc(-c3cnn(C(F)(F)F)c3)ccc21 (racemic) [compound 231] | < 10
44 | CC1OCc2c(NC(=O)C(=O)N(C)C3COCc4cc(C(F)(F)F)ccc43)cnc(N)c21 (single isomer, unassigned) [Example 146-P1] | 100 to 1000
45 | CN(C(=O)C(=O)Nc1cnc(N)c2c1cnn2C)C1COCc2c1ccc(F)c2F (stereo not drawn) [Example 141-P1] | 10 to 100
46 | CN(C(=O)C(=O)Nc1cnc(N)c2c1cnn2C)C1COc2cc(F)c(F)cc21 (racemic) [compound 172] | 10 to 100
47 | Cn1ncc2c(NC(=O)C(=O)N(Cc3ccc(C(F)(F)F)cn3)CC3CCC3)cnc(N)c21 [Example 4] | 10 to 100
48 | CC1OCC(N(C)C(=O)C(=O)Nc2cnc(N)c3c2cnn3C)c2ccc(C(F)(F)F)cc21 (stereo not drawn) [compound 187] | < 10
49 | CN(C(=O)C(=O)Nc1cnc(N)c2c1cnn2C)C1COCc2c1ccc(Cl)c2Cl (racemic) [compound 168] | < 10

Second part, the compound after the results:

Row | GI50 [nM] | Structure (SMILES)
50 | 10 to 100 | CCC(C)N(Cc1ccc(C(F)(F)F)cn1)C(=O)C(=O)Nc1cnc(OC)c(C(N)=O)c1 (single isomer, unassigned) [Example 5-P2]
51 | > 10000 | Cc1cc(C2CC2C(=O)N(Cc2ccc(C(F)(F)F)cn2)[C@H](C)c2ncccn2)cnc1N (stereo partly drawn) [Example 7]
52 | 10 to 100 | CCC(C)N(Cc1ccc(C(F)(F)F)cn1)C(=O)C(=O)Nc1cnc(N)c(C)c1 (single isomer, unassigned) [Example 45-P2]
53 | 10 to 100 | C[C@H](c1ncccn1)N(Cc1ccc(C(F)(F)F)cn1)C(=O)C(=O)Nc1cnc(N)c2c1cnn2C [Example 30]
54 | 100 to 1000 | Cc1cc(NC(=O)C(=O)N(Cc2ccc(C(F)(F)F)cn2)C2CCCOC2)cnc1N (single isomer, unassigned) [Example 14-P2]
55 | 10 to 100 | CCC(C)N(Cc1ccc(C(F)(F)F)cn1)C(=O)C(=O)Nc1cnc(N)c(C)c1 (single isomer, unassigned) [Example 45-P1]
56 | 10 to 100 | CCC(C)N(Cc1ccc(C(F)(F)F)cn1)C(=O)C(=O)Nc1cnc(N)c2c1cnn2C (racemic) [Example 46-P1]
57 | 100 to 1000 | C[C@H](c1ncccn1)N(Cc1ccc(C(F)(F)F)cn1)C(=O)C(=O)Nc1cnc(N)c(Br)c1 [Example 24]
58 | 1000 to 10000 | Cc1cc(NC(=O)C(=O)N(C)Cc2ccc(C(F)(F)F)cn2)cnc1N [Example 3]
59 | 100 to 1000 | C[C@H](C1CC1)N(Cc1ccc(C(F)(F)F)cn1)C(=O)C(=O)Nc1cnc(N)c2c1COC2 [Example 39]
60 | 10 to 100 | Cc1cc(NC(=O)C(=O)N(Cc2ccc(C(F)(F)F)cn2)[C@H](C)C2CC2)cnc1N [Example 36]
61 | 10 to 100 | Cc1cc(NC(=O)C(=O)N(Cc2ccc(C(F)(F)F)cn2)CC2CCCC2)cnc1N [Example 17]
62 | < 10 | CCC(C)N(Cc1ccc(C(F)(F)F)cn1)C(=O)C(=O)Nc1cnc(N)c2c1cnn2C (stereo not drawn) [Example 52]
63 | 10 to 100 | CCC(C)N(Cc1ccc(C(F)(F)F)cn1)C(=O)C(=O)Nc1cnc(OC)c(C(N)=O)c1 (single isomer, unassigned) [Example 5-P1]
